“Also recorded” adds a separate entry of the source.
Key:
abdominal fat = assay: Stress and high-fat diet induced obesity model; assay type: in vivo, mice
Protocol: In environmentally-induced obese mice, normal NWT C57BL/6 and SV129 mice are subjected to low levels of chronic stress (cold stress, 1 cm ice-water bath at the base of the cage for 1 hour, a technique that increases NPY and stimulates vascular growth) and fed a high-fat, “comfort food” diet consisting of lard and sucrose (standard chow diet/high fat diet: fat: 12%/45%, carbohydrates: 60%/35%, and protein: 28%/20%). These mice are treated with NPY, Y2R agonists and Y2R antagonists. The growth of fat deposits is monitored by MRI and vascularization is confirmed by immunohistochemistry (IHC). ELISA, IHC, and quantitative real-time RT-PCR are used to determine how diet and stress affect NPY and Y2R levels. Core body temperature and food intake are monitored to determine changes in metabolism (FIG. 15). Glucose tolerance tests and lipid profiles of the mice are used to determine whether altering adipose mass results in a change in insulin, glucose, FFA, TG or cholesterol in the plasma (FIG. 18).
Magnetic Resonance Imaging (MRI): A Brukker 7-Tesla small-animal magnetic resonance imager coil is used to visualize and noninvasively quantitate various fat depots. A 3-dimensional (3D) T2-weighted (T2W) imaging protocol optimized for high contrast fat-imaging is implemented. […] Quantification of the total body fat as well as separate specific fat depots is calculated using thresholding and voxel count plugins from NIH image J software. VolumeJ is used to render, in a 3D image, the various fat depots. The animal management system that is used in conjunction with the MRI is equipped to take core, skin, ambient and water blanket temperature measurements that are monitored during the imaging. The water blanket is used to regulate core temperature of the rodent during anesthesia. […]
High fat diet: Mice are given either a Standard Chow (SC) diet: 28% protein, 60% carbohydrate, 12% fat (4 kcal/gm) or a High Fat (HF) diet: 20% protein, 35% carbohydrate, 45% fat (4.7 kcal/gm) from Research Diets for 14-28 days. Food consumption is measured daily from the various treatment groups and pairfeeding ensures that changes seen in weight and visceral fat are due to the peripheral effects of the treatment. […]

Glucose tolerance test = assay type: in vivo, mice; conditions: for response to glucose challenge / glucose intolerance: WT mice exposed to stress and high-fat diet, FIG. 18A
Protocol: Glucose tolerance test: After an overnight 17 h fast, unanesthetized mice are injected i.p. with a dose of 1.5 g of 50% glucose solution per kg of body weight. Blood samples are obtained from the tail vein 30 min prior to the glucose challenge and then again at 0, 30, 60, 90 min after the glucose challenge. Blood glucose concentrations are measured with an Elite XL (Bayer) portable glucose meter.
1. Cell culture: 3T3-L1 preadipocyte cells, (gift from Dr. Lane,^34) were cultured in DMEM high glucose media with glutamine, 10% calf sera (Gemini Bioproducts), d-Biotin (8 μg/ml) and Pantothenate (8 μg/ml) (Sigma). SK-N-BE(2) neuroblastoma cells (ATCC) were cultured in EMEM/F12K with 10% fetal bovine sera (FBS). HMVEC endothelial cells (Cambrex) were cultured in endothelial cell growth media (Cambrex). All media was supplemented with 100 units/ml penicillin, 100 μg/ml streptomycin and […] amphotericin. 2. Proliferation assay: Cells were plated onto 96-well dishes, growth-arrested in serum-free media for 24 h, and then were treated with the desired factors for 24 h in the culture media supplemented with 0.25% FBS; 4 hr after treatment 0.5 μCi [^3H] thymidine was added to each well. After 24 h, cells were harvested in a 96-well harvester (Tomtec) and counted in a Betaplate Liquid Scintillation Counter (Wallac). 3. Co-culture: For mitogenic assay and expression studies, co-culture was performed in a Costar Transwell system. Cells were plated on 6-well plates or inserts with 0.4 μm Polyester membranes. At 30% confluence, the inserts were combined with wells containing other cells. […] After 48 hr, the cells were counted with a Beckman Coulter Counter. […] The results were analyzed using software provided by BioRad and expression levels calculated by the comparative CT method using β-actin as an endogenous reference gene, according to the Applied Biosystems' ABI PRISM 7700 User Bulletin #2. […] The density of TUNEL positive cells will be measured using NIH ImageJ software (using a plugin written by Wayne Rasband). […]

[1] = intra-fat injection, HF and stress
[2] = local Y2R antagonist, stress and HF-diet
[3] = local intra-fat injections, within 2-weeks, HF + stress

Q: Which “stress-amplification of visceral fat (MRI fat volume fraction)” value (abdominal fat; four weeks daily 1-hr cold stress + high fat diet) does the source give for N=C(N)NCCC[C@H](NC(=O)CC1(CC(=O)N2CCN(C3c4ccccc4NC(=O)c4ccccc43)CC2)CCCC1)C(=O)NCCn1c(=O)n(-c2ccccc2)n(-c2ccccc2)c1=O (some centres unmarked) [BIIE0246] here?
A: Its value is “reversed”.

Q: What about the “stress-induced insulin-to-NPY switch and metabolic abnormalities” value (abdominal fat; intra-fat administration) of the same compound?
A: The value was “fully prevented”.

Q: What about the fat mass (abdominal fat; [1]) of the same compound?
A: Its fat mass is “reduced fat mass”.

Q: What about the “imbalance of NPY-to-epinephrine plasma levels” value (abdominal fat; [1]) of the same compound?
A: Its value is “reversed this imbalance”.

Q: What about the “stress+HF-induced hyperlipidemia” value (abdominal fat; intra-fat injections) of the same compound?
A: Its value is “did not alter”.

Q: What about the “UCP-1/2 expression in WAT” value (abdominal fat; intra-fat injections, stress+HF) of the same compound?
A: The value was “did not alter”.

Q: What about the “adipocyte apoptosis (TUNEL)” value (abdominal fat; [2]) of the same compound?
A: Its value is “increased their apoptosis”.

Q: What about the “adipocyte proliferation (Ki67+ staining)” value (abdominal fat; [2]) of the same compound?
A: Its value is “inhibited adipocyte proliferation”.

Q: What about the insulin levels (abdominal fat; [3]) of the same compound?
A: The insulin levels was “increased insulin levels”.

Q: And the metabolic profile (abdominal fat; [3])?
A: Its metabolic profile is “improved metabolic profile”.

Q: What about the “plasma NPY levels” value (abdominal fat; [3]) of the same compound?
A: The value was “normalized”.

Q: What about the plasma adipokine levels (abdominal fat; [3]) of the same compound?
A: Its plasma adipokine levels is “normalized”.

Q: And the “tissue steatosis (liver and skeletal muscle)” value (abdominal fat; local intra-fat injections, HF + stress, listed as Y2R antagonist)?
A: The value was “inhibited tissue steatosis; also recorded: reduced liver and skeletal muscle steatosis”.

Q: And the visceral fat (abdominal fat; nonstressed WT mice, FIG. 17)?
A: The visceral fat was “significant reduction in visceral fat”.

Q: And the “lowered plasma osteocalcin levels (bone loss response)” value (abdominal fat; stress combined with HF, intra-fat delivery)?
A: The value was “completely normalized”.

Q: What about the “stress-induced WAT cellularity, proliferation of small adipocytes” value (abdominal fat; stress in HF-fed mice) of the same compound?
A: The value was “reversed”.

Q: What about the “visceral fat volume fraction” value (abdominal fat; stressed C57BL/6 WT mice, FIG. 17) of the same compound?
A: Its value is “reversed”.

Q: What about the other fat depots (abdominal fat; stressed HF-fed mice, 2-weeks) of the same compound?
A: The other fat depots was “without significantly changing other depots”.

Q: What about the “reduction of abdominal (subcutaneous and visceral) depot” value (abdominal fat; stressed HF-fed mice, pellet 10 μg/14 days or daily injections 1 μM, 2-weeks) of the same compound?
A: Its value is 40%.

Q: And the “visceral fat volume fraction” value (abdominal fat; stressed SV129 mice on high-fat diet, Y2R antagonist slow-release pellets, FIG. 16)?
A: The value was “reduced to a level that is comparable to nonstressed SV129 mice given a placebo pellet”.

Q: And the “response to glucose challenge / glucose intolerance” value (Glucose tolerance test; listed as Y2R antagonist)?
A: Its value is “resolved”.

Q: What about the “response to glucose challenge / glucose intolerance” value (Glucose tolerance test; listed as Y2 antagonist) of the same compound?
A: The value was “normalized glucose intolerance”.

Q: What about the “response to glucose challenge” value (Glucose tolerance test; ob/ob mice, FIG. 18B, listed as Y2R antagonist) of the same compound?
A: Its value is “near normal response to the challenge; also recorded: resolved”.

Reference: US20090317376A1, “Compositions And Methods For Lipo Modeling” (Georgetown University MEDICAL SCHOOL, priority 2005, published 2009)
